Assay [1] relates to Septoria tritici. As to the kind of experiment: Example F-A: in vivo preventive Septoria tritici test (wheat). The conditions noted are these: Zymoseptoria tritici, 504 h, evaluated 21 days after inoculation, read-out: Efficacy in % Example F-A. How it is done:
Example F: In Vivo Septoria tritici Test (Wheat); Comparison of Pyridinyloxy-Pyridyl Compounds According to the Invention Vs. Compounds Known from WO-A 2010/146116 [table] To produce a suitable preparation of active compound, 1 part by weight of active compound or active compound combination is mixed with the stated amounts of solvent and emulsifier, and the concentrate is diluted with water to the desired concentration. Example F-A: In Vivo Preventive Septoria tritici Test (Wheat) To test for preventive activity, young plants are sprayed with the preparation of active compound or active compound combination at the stated rate of application. After the spray coating has been dried, the plants are sprayed with a spore suspension of Septoria tritici. The plants remain for 48 hours in an incubation cabinet at approximately 20° C. and a relative atmospheric humidity of approximately 100% and afterwards for 60 hours at approximately 15° C. in a translucent incubation cabinet at a relative atmospheric humidity of approximately 100%. The plants are placed in the greenhouse at a temperature of approximately 15° C. and a relative atmospheric humidity of approximately 80%. The test is evaluated 21 days after the inoculation. 0% means an efficacy which corresponds to that of the untreated control, while an efficacy of 100% means that no disease is observed.

Assay [2] deals with Septoria tritici. As to the kind of experiment: Example F-B: in vivo curative Septoria tritici test (wheat). The conditions noted are these: Zymoseptoria tritici, 504 h, sprayed 48 hours after inoculation, evaluated 21 days after inoculation, read-out: Efficacy in % Example F-B. How it is done: Example F: In Vivo Septoria tritici Test (Wheat); Comparison of Pyridinyloxy-Pyridyl Compounds According to the Invention Vs. Compounds Known from WO-A 2010/146116 [table] To produce a suitable preparation of active compound, 1 part by weight of active compound or active compound combination is mixed with the stated amounts of solvent and emulsifier, and the concentrate is diluted with water to the desired concentration. Example F-B: In Vivo Curative Septoria tritici Test (Wheat) To test for curative activity, young plants are inoculated with a spore suspension of Septoria tritici and remain for 48 hours in an incubation cabinet at a temperature of approximately 20° C. and a relative atmospheric humidity of approximately 100%. 48 hours after the incubation, the plants are sprayed with the preparation of active compound or active compound combination at the stated rate of application. After application the plants remain for 60 hours at a temperature of approximately 15° C. in a translucent incubation cabinet at a relative atmospheric humidity of approximately 100%. Afterwards, the plants are placed in the greenhouse at a temperature of approximately 15° C. and a relative atmospheric humidity of approximately 80%. The test is evaluated 21 days after the inoculation. 0% means an efficacy which corresponds to that of the untreated control, while an efficacy of 100% means that no disease is observed.

In assay [3] the test system is Septoria tritici. As to the kind of experiment: Example F-C: in vivo 5 days preventive Septoria tritici test (wheat). The conditions noted are these: Zymoseptoria tritici, 504 h, inoculated 5 days after spraying, evaluated 21 days after inoculation, read-out: Efficacy in % Example F-C. How it is done:
Example F: In Vivo Septoria tritici Test (Wheat); Comparison of Pyridinyloxy-Pyridyl Compounds According to the Invention Vs. Compounds Known from WO-A 2010/146116 [table] To produce a suitable preparation of active compound, 1 part by weight of active compound or active compound combination is mixed with the stated amounts of solvent and emulsifier, and the concentrate is diluted with water to the desired concentration. Example F-C: In Vivo 5 Days Preventive Septoria tritici Test (Wheat) To test for preventive and long-lasting activity, young plants are sprayed with a preparation of active compound or active compound combination at the stated rate of application. After the spray coating has been dried, the plants are placed in the greenhouse at a temperature of approximately 15° C. and a relative atmospheric humidity of approximately 80%. 5 days later the plants are sprayed with a spore suspension of Septoria tritici. The plants remain for 48 hours in an incubation cabinet at approximately 20° C. and a relative atmospheric humidity of approximately 100% and afterwards for 60 hours at approximately 15° C. in a translucent incubation cabinet at a relative atmospheric humidity of approximately 100%. Then the plants are placed in the greenhouse at a temperature of approximately 15° C. and a relative atmospheric humidity of approximately 80%. The test is evaluated 21 days after the inoculation. 0% means an efficacy which corresponds to that of the untreated control, while an efficacy of 100% means that no disease is observed.

Drawing on patent US20200017467A1, “NOVEL TRIAZOLE DERIVATIVES” (BAYER CROPSCIENCE AKTIENGESELLSCHAFT, priority 2017, published 2020), this text covers pest or weed control for one molecule.

The structures appear in SMILES notation.

On to `Clc1ccc(Oc2cc(Cl)c(C3(Cn4cncn4)OCCO3)cn2)cc1` [reference compound], for which the pest or weed control at 500 ppm in assay [1] was 89%; in assay [2] it was 89%; in assay [3] it was 80%.
